Measured values: patent US6048884A, “Amide derivatives and medicinal compositions thereof” (Yamanouchi Pharmaceutical Co., Ltd., priority 1997, dated 2000)
Counter-ions that a name gives are not always drawn.

Key:
[1] = tested on: kk mice (insulin-resisting model: obesity and hyperglycemia); test: Hypoglycemic test in kk mice (insulin sensitivity potentiating action); type: in vivo; conditions: oral administration of 10 mg/kg once daily for four days; blood sugar 15 to 18 hours after final administration vs level prior to administration; male kk mice, n=6; p<0.01
Protocol: 1. Hypoglycemic test in kk mice (insulin-resisting model: obesity and hyperglycemia) [insulin sensitivity potentiating action]:
Blood sugar levels under feeding were measured for male kk mice (sugar blood level being 200 mg/dl or more) and they were randomly divided into several groups. The drug to be tested was compulsorily administered per os once daily for four days and the blood sugar level after 15 to 18 hours from the final administration was compared with the level prior to the administration (n=6), whereupon a hypoglycemic rate (%) was calculated. Blood was collected from tail vein of the mouse using a glass capillary (previously treated with heparin), protein was removed therefrom and the amount of glucose (mg/dl) in the supernatant liquid was calorimetrically determined by a glucose oxidase method to obtain the blood sugar level.

[2] = tested on: normal rats (male rats of SD-strain); test: Sugar tolerance test in normal rats (OGTT; insulin secretion promoting action); type: in vivo; conditions: 10 mg/kg orally 30 minutes before glucose 2 g/kg per os; fasted male SD rats, n=4
Protocol: 2. Sugar tolerance test in normal rats [insulin secretion promoting action]:
Male rats of SD-strain (seven weeks age) were fasted for one night and day, randomly divided into several groups and subjected to an oral glucose tolerance test (OGTT) (n=4). The compound to be tested was orally administered at 30 minutes before administration of glucose (2 g/kg per os). Blood was collected by a heparin-treated glass syringe from abdominal artery of the rat under anesthetization with 65 mg/kg of pentbarbital, protein was removed therefrom and the amount of glucose (mg/dl) in the supernatant liquid was calorimetrically determined by a glucose oxidase method to obtain the blood sugar level. Insulin level in blood was determined by measuring the amount of insulin (ng/ml) in plasma by means of a radio-immunoassay (RIA). The result was that, when 10 mg/kg of the compound of Example 4 was administered, insulin secretion increased to an extent of three-fold in terms of AUC ratio and blood sugar level decreased to 90% as compared with that prior to the administration.

O=C(Cc1csc(NCc2ccccc2)n1)Nc1ccc(CCNC[C@H](O)COc2ccccc2)cc1 [Example 1, (S)-2-(2-benzylamino-4-thiazolyl)-4'-[2-[(2-hydroxy-3-phenoxypropyl)amino]ethyl]acetanilide]
hypoglycemic rate [1]: 47%

O=C(Cc1csc(Nc2ccccc2)n1)Nc1ccc(CCNC[C@H](O)COc2ccccc2)cc1 [Example 4, (S)-2-(2-phenylaminothiazol-4-yl)-4'-[2-[(2-hydroxy-3-phenoxyethyl)amino]ethyl]acetanilide dihydrochloride]
hypoglycemic rate [1]: 56% | blood sugar level decreased to, as compared with that prior to the administration [2]: 90% | insulin secretion increase in terms of AUC ratio (plasma insulin, RIA) [2]: three-fold

O=C(Cc1csc(Nc2cccc(F)c2)n1)Nc1ccc(CCNC[C@H](O)COc2ccccc2)cc1 [Example 2-b, (S)-2-[2-(3-fluoroanilino)-4-thiazol-4-yl)-4'-[2-[(2-hydroxy-3-phenoxypropyl)amino]ethyl]acetanilide]
hypoglycemic rate [1]: 52%

CC(Cc1ccc(NC(=O)Cc2csc(Nc3ccccc3)n2)cc1)NC[C@H](O)COc1ccccc1 (stereo partly drawn) [Example 2-c, (S)-2-(2-anilino-4-thiazol-4-yl)-4'-{2-[(-2-hydroxy-3-phenoxypropyl)amino]propyl}acetanilide]
hypoglycemic rate [1]: 50%
